Results on 4 compounds are retold here after patent publication US20260001875A1, “AMINOPYRIMIDINYL DERIVATIVES FOR THE TREATMENT OF PARKINSON'S DISEASE” (UNIVERSITY OF DUNDEE, priority 2022, published 2026).

Assay [1] has as its target T1, LRRK2^G2019S (Mus musculus, UniProt Q5S006, G2019S).
T1 construct: endogenous in cells; host or cells: LRRK2[G2019S] mouse embryonic fibroblasts (MEFs)
The experiment in a line: Western blot LRRK2 degradation in LRRK2^G2019S MEFs. Particulars: for Dmax: read-out: Dmax on G2019S MEFs. The format is cell-based. Here is the method: (§1) The second-generation PROTACs were tested in parallel with the first generation PROTACs SD75, SD82, and SD100. The compounds were tested at 33 nM or […] concentrations for 4 hours or 24 hours, running two biological replicates per condition and achieving quantifications representative of both replicates. Analysis by quantitative immunoblotting was performed with readouts of the total LRRK2 (antibody recognizes epitope in C-terminus of protein), Rab10 pThr73 (physiological substrate) and LRRK2 pSer935 (biomarker phosphorylation site).
(§2) Primary MEFs were generated as described in a previous study (Wiggin et al., Mol. Cell Biol. 2002 April; 22(8):2871-81.). Briefly, the uterine horn was collected from adult female mice at day E12.5 and transferred to a 10 cm tissue culture dish containing cold PBS. Two forceps were used to tear the yolk sacs to isolate each embryo. Forceps were cleaned thoroughly with 70% ethanol between each embryo isolation. The embryos were culled, and a tissue piece was collected in a PCR tube for genotyping. The red tissue of the embryo, which grows to become the heart and liver, was removed. The remainder of the embryo was minced with a scalpel blade and incubated with 7.5 ml trypsin-EDTA solution for 10 minutes in a 37° C. tissue culture CO2 incubator. The dish was removed from the incubator and checked under a light microscope for single cells. 7.5 ml complete media was added to the trypsinised cells, and the cell suspension was transferred to a 15 ml Falcon tube, centrifuged at 1200 rpm for 5 minutes at room temperature. The trypsin was aspirated, the cell pellet was resuspended in 5 ml fresh complete media, and the cell suspension was plated in a 60 mm tissue culture dish and incubated in a 37° C., 5% CO2 tissue culture incubator. The MEFs at this stage were considered as passage 0 and were passaged and expanded for experimental use once the genotype was confirmed by allelic sequencing and immunoblotting. MEFs were cultured in Dulbecco's modified Eagle medium (DMEM) containing 10% (v/v) fetal bovine serum (FBS), 2 mM L-glutamine, 100 U/ml penicillin, and 100 μg/ml streptomycin supplemented with 1× non-essential amino acids and 1 mM sodium pyruvate.
Culturing and passaging of adherent cell lines were carried out using aseptic technique in CL1 or CL2 (for PBMC isolation) biological safety cabinets. All cells were incubated in a 37° C. incubator with 5% CO2. Cell lines were regularly tested for mycoplasma contamination. For western blot assay, the cells were seeded in 6-well plates. […] The cells were immediately placed on ice and were scraped and collected into 1.5 ml Eppendorf tubes. Cell lysates were incubated on ice for 10 minutes prior to centrifugation at 15,000 g at 4° C. for 15 minutes. The cell pellet was discarded, and supernatant was collected for analysis by quantitative immunoblotting. For long term storage, the supernatant was flash frozen and stored at −80° C. Protein concentrations of cell lysates were determined using the Bradford assay.
Cell lysates containing a quarter of a volume of 4× NuPAGE LDS sample buffer (NP0007) supplemented with 5% β-mercaptoethanol, were heated at 95° C. for 5 minutes. 15 to 20 μg of samples were loaded onto pre-cast 4-12% Bis-Tris midi 20W or 26W gels (Thermofisher Scientific®, Cat #WG1402BOX or WG1403BOX) and resolved at 130 V for 2 hours with NuPAGE MOPS SDS running buffer (Thermofisher Scientific® Cat #NP0001-02). Proteins were electrophoretically transferred onto a 0.45 μm nitrocellulose membrane (GE Healthcare, Amersham Protran® Supported 0.45 mm NC) at 90 V for 90 min on ice in transfer buffer (48 mM Tris base and 39 mM glycine supplemented with 20% methanol). The transferred membrane was blocked with 5% (w/v) skim milk powder dissolved in tris-buffered saline with tween (TBS-T) (50 mM Tris base, 150 mM sodium chloride (NaCl), 0.1% (v/v) Tween-20) at room temperature for 1 hour.
Background: A western blot detects proteins with antibodies after separation by electrophoresis.

Assay [2] deals with Rab10 pThr73. The experiment in a line: Rab10 Thr73 dephosphorylation (immunoblot) in LRRK2^G2019S MEFs. The format is cell-based, mouse. Particulars: Mus musculus; for inhibition at 1 µM: read-out: pRab10 inhibited in LRRK2^G2019S MEFs; for EC50: dose response, 4 h treatment, read-out: G2019S MEFs-pRab10-dephosphorylation EC50.
Assay [3] concerns Rab10 pThr73. As to the kind of experiment: Rab10 Thr73 dephosphorylation (immunoblot) in WT MEFs. The format is cell-based, mouse. The following applies: Mus musculus; for inhibition at 0.033 µM / inhibition at 1 µM: read-out: pRab10 inhibited in WT MEFs; for EC50: dose response, 4 h treatment, read-out: WT MEFs pRab10-dephosphrylation EC50. An outline of the steps: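 Wild-type mouse embryonic fibroblasts in 6-well plates were treated with LRRK2 PROTACs, with two biological replicates per condition. Cells were washed in PBS and lysed on ice in buffer containing phosphatase and protease inhibitors plus 1% Triton X-100, then clarified at 15,000 g. Rab10 Thr73 phosphorylation was measured by quantitative immunoblotting of 15 to 20 μg protein on 4-12% Bis-Tris gels.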

In assay [4] the test system is Rab10 pThr73. The experiment in a line: Rab10 Thr73 dephosphorylation (immunoblot) in LRRK2^G2019S MEFs. The format is cell-based. Particulars: Mus musculus, read-out: pRab10 inhibited in LRRK2^G2019S MEFs.
The target of assay [5] is T2, LRRK2^WT (Mus musculus, UniProt Q5S006).
T2 construct: endogenous in cells; host or cells: primary wild-type mouse embryonic fibroblasts (MEFs)
As to the kind of experiment: Western blot LRRK2 degradation in WT MEFs. The following applies: for Dmax: read-out: Dmax on WT MEFs. The format is cell-based. Here is the method:
as §1, with “Western blot degradation assays for the LRRK2 protacs were performed with WT and PD-associated LRRK2 [G2019S] mouse embryonic fibroblasts (MEFs). The second-generation” for “The second-generation”
as §2
Culturing and passaging of adherent cell lines were carried out using aseptic technique in CL1 or CL2 (for PBMC isolation) biological safety cabinets. All cells were incubated in a 37° C. incubator with 5% CO2. Cell lines were regularly tested for mycoplasma contamination. For western blot assay, the cells were seeded in 6-well plates. After treating with testing compounds at indicated concentrations and time period, the media was removed and the cells were washed with PBS and lysed in 100 μl ice-cold complete lysis buffer containing 50 mM Tris-HCl pH 7.4, 1 mM EGTA, 10 mM 2-glycerophosphate, 50 mM sodium fluoride, 5 mM sodium pyrophosphate, 270 mM sucrose, supplemented with 1 μg/ml microcystin-LR, 1 mM sodium orthovanadate, complete EDTA-free protease inhibitor cocktail (Roche) and 1% (v/v) Triton X-100. The cells were immediately placed on ice and were scraped and collected into 1.5 ml Eppendorf tubes. Cell lysates were incubated on ice for 10 minutes prior to centrifugation at 15,000 g at 4° C. for 15 minutes. The cell pellet was discarded, and supernatant was collected for analysis by quantitative immunoblotting. For long term storage, the supernatant was flash frozen and stored at −80° C. Protein concentrations of cell lysates were determined using the Bradford assay.
Cell lysates containing a quarter of a volume of 4× NuPAGE LDS sample buffer (NP0007) supplemented with 5% β-mercaptoethanol, were heated at 95° C. for 5 minutes. […]

Read-outs that look alike come from different tables or passages of the source.

T1 sequence (Q5S006 whole entry G2019S): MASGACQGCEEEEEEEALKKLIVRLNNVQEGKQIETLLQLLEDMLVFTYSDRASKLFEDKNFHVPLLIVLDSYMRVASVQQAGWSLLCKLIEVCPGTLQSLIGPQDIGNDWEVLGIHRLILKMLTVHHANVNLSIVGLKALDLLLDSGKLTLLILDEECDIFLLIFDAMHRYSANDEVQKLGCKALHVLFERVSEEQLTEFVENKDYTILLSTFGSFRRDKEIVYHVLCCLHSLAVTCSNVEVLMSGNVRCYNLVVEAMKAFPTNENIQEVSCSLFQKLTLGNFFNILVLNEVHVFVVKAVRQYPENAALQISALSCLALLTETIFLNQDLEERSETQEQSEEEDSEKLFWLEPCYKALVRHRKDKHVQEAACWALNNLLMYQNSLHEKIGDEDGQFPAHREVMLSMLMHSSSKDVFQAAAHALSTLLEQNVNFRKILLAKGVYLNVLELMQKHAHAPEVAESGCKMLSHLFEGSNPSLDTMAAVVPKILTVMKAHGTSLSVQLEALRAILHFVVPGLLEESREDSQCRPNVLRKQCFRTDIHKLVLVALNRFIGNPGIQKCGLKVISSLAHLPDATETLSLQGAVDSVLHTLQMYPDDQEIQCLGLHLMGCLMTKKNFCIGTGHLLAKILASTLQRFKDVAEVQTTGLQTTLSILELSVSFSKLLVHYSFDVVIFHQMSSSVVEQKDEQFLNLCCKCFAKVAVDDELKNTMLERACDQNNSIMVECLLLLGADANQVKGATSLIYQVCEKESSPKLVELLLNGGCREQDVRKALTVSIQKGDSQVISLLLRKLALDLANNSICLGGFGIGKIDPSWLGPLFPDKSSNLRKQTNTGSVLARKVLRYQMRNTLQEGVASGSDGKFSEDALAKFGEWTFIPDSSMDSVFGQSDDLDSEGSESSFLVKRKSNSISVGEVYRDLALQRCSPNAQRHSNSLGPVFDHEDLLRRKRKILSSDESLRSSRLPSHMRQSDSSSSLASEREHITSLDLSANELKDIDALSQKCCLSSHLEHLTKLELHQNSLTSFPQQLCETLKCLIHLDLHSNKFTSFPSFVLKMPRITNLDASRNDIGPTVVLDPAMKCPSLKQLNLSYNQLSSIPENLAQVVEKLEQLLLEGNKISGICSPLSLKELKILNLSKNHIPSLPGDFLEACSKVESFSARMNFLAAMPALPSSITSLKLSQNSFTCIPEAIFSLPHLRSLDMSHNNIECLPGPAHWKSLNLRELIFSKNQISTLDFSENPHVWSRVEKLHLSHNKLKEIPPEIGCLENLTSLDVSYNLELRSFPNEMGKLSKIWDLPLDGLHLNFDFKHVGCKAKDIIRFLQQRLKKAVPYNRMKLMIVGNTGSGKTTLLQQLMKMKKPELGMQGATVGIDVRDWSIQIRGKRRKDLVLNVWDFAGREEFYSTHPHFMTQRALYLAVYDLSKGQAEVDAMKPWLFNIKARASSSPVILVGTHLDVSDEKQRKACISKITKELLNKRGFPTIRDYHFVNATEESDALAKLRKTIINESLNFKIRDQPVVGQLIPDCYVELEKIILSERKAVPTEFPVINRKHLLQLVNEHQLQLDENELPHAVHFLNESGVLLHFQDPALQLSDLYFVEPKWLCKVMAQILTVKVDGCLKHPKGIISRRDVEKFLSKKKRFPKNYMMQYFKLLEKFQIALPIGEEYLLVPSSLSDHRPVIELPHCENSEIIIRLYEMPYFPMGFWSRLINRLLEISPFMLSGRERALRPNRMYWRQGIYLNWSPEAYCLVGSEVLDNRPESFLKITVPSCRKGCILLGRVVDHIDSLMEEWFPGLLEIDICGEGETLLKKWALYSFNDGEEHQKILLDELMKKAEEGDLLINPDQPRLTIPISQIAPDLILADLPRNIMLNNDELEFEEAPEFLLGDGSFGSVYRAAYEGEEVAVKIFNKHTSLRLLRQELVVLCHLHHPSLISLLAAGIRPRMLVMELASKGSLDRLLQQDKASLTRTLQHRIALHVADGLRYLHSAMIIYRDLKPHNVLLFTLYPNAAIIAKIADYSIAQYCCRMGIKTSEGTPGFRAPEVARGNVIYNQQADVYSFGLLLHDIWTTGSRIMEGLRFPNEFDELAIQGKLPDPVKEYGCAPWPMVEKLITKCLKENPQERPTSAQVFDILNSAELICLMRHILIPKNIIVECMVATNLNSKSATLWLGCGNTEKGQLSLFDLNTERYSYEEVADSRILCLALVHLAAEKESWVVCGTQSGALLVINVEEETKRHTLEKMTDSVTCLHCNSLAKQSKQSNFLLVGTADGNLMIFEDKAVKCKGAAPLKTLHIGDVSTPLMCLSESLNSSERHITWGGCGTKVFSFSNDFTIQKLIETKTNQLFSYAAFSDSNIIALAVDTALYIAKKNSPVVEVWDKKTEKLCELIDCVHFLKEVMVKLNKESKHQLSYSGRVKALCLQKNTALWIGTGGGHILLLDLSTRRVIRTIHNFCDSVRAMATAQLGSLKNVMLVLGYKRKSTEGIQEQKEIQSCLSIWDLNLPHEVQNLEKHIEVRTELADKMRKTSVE
T2 sequence (Q5S006 whole entry): as the sequence (Q5S006 whole entry G2019S) above, with S2019G counted along it

By DC50 is commonly meant the concentration giving 50% degradation. Low readings indicate degradation at low concentration, high ones degradation only at high concentration. By Dmax is commonly meant the greatest extent of degradation seen. The EC50 is the concentration that produces a half-maximal response. Regarding `CNc1nc(Nc2ccc(C(=O)N3CCN(C[C@H]4CC[C@H](CSC(C)(C)[C@H](NC(=O)C5(F)CC5)C(=O)N5C[C@H](O)[C@H](F)C5C(=O)NCc5ccc(-c6scnc6C)cc5)CC4)CC3)cc2OC)ncc1Cl` (stereo partly drawn) [XL02152, (2S,3R,4S)-1-((R)-3-((((1r,4R)-4-((4-(4-((5-chloro-4-(methylamino)pyrimidin-2-yl)amino)-3-methoxybenzoyl)piperazin-1-yl)methyl)cyclohexyl)methyl)thio)-2-(1-fluorocyclopropane-1-carboxamido)-3-methylbutanoyl)-3-fluoro-4-hydroxy-N-(4-(4-methylthiazol-5-yl)benzyl)pyrrolidine-2-carboxamide], the 50% degradation concentration (DC50) in assay [1] (dose response, 4 h treatment) stood at 44 nM; in assay [5] (dose response, 4 h treatment), 62 nM. Further, the figures for the Dmax in assay [1] and in assay [5] were 80% and 68%, respectively. The inhibition at 1 µM in assay [2] (1 μM/4 h treatment) lay within 80 to 100%; in assay [3] (1 μM/4 h treatment), 75 to 90%. The EC50 is 63 nM in assay [2] and 144 nM in assay [3]. The inhibition at 0.033 µM in assay [3] (33 nM/4 h treatment) lay within 20 to 40%; in assay [4] (33 nM/4 h treatment), 20 to 50%.

As to `CNc1nc(Nc2ccc(OC3CCN(C[C@H]4CC[C@H](CSC(C)(C)C(NC(=O)C5(F)CC5)C(=O)N5C[C@H](O)C[C@H]5C(=O)NCc5ccc(-c6scnc6C)cc5)CC4)CC3)cc2OC)ncc1Cl` (stereo partly drawn) [XL02017, (2S,4R)-1-((S)-3-((((1R,4S)-4-((4-(4-((5-chloro-4-(methylamino)pyrimidin-2-yl)amino)-3-methoxyphenoxy)piperidin-1-yl)methyl)cyclohexyl)methyl)thio)-2-(1-fluorocyclopropane-1-carboxamido)-3-methylbutanoyl)-4-hydroxy-N-(4-(4-methylthiazol-5-yl)benzyl)pyrrolidine-2-carboxamide], the DC50 in assay [1] (dose response, 4 h treatment) stood at 22 nM; in assay [5] (dose response, 4 h treatment), 44 nM. The Dmax in assay [1] (dose response, 4 h treatment) worked out at 79%; in assay [5] (dose response, 4 h treatment) it was 68%. Besides, the inhibition at 1 µM was in the range of 10 to 100% in assay [2] (1 μM/4 h treatment), 80 to 100% in assay [2] (1 μM/24 h treatment), 80 to 100% in assay [3] (1 μM/4 h treatment) and 80 to 100% in assay [3] (1 μM/24 h treatment). Moreover, the EC50 in assay [2] amounted to 25 nM; in assay [3], 83 nM. Besides, the inhibition at 0.033 µM in assay [3] (33 nM/4 h treatment) was in the range of 0 to 70%; in assay [3] (33 nM/24 h treatment), 0 to 80%; in assay [4] (33 nM/4 h treatment), 0 to 90%; in assay [4] (33 nM/24 h treatment) it was 30 to 90%.

As to `CNc1nc(Nc2ccc(C(=O)N3CCN(C[C@H]4CC[C@H](CSC(C)(C)[C@H](NC(=O)C5(F)CC5)C(=O)N5C[C@H](O)CC5C(=O)NCc5ccc(-c6scnc6C)cc5F)CC4)CC3)cc2OC)ncc1Cl` (stereo partly drawn) [XL02047, (2S,4R)-1-(®-3-((((1r,4R)-4-((4-(4-((5-chloro-4-(methylamino)pyrimidin-2-yl)amino)-3-methoxybenzoyl)piperazin-1-yl)methyl)cyclohexyl)methyl)thio)-2-(1-fluorocyclopropane-1-carboxamido)-3-methylbutanoyl)-N-(2-fluoro-4-(4-methylthiazol-5-yl)benzyl)-4-hydroxypyrrolidine-2-carboxamide], the DC50 in assay [1] (dose response, 4 h treatment) stood at 60 nM; in assay [5] (dose response, 4 h treatment) it was 45 nM. For the same compound, the Dmax in assay [1] (dose response, 4 h treatment) was determined as 79%; in assay [5] (dose response, 4 h treatment), 78%. Besides, the inhibition at 1 µM was in the range of 10 to 100% in assay [2] (1 μM/4 h treatment), 80 to 100% in assay [2] (1 μM/24 h treatment), 80 to 100% in assay [3] (1 μM/4 h treatment) and 80 to 100% in assay [3] (1 μM/24 h treatment). Also, the concentration for a half-maximal effect (EC50) is 73 nM in assay [2] and 228 nM in assay [3]. The inhibition at 0.033 µM in assay [3] (33 nM/4 h treatment) is 0 to 70%; in assay [3] (33 nM/24 h treatment) it was 0 to 80%; in assay [4] (33 nM/4 h treatment), 0 to 90%; in assay [4] (33 nM/24 h treatment), 30 to 90%.

Take `CNc1nc(Nc2ccc(C(=O)N3CCC4(CCN(C[C@H]5CC[C@H](CSC(C)(C)C(NC(=O)C6(F)CC6)C(=O)N6C[C@H](O)C[C@H]6C(=O)NCc6ccc(-c7scnc7C)cc6)CC5)CC4)CC3)cc2OC)ncc1Cl` (stereo partly drawn) [XL02038, (2S,4R)-1-((S)-3-((((1R,4S)-4-((9-(4-((5-chloro-4-(methylamino)pyrimidin-2-yl)amino)-3-methoxybenzoyl)-3,9-diazaspiro[5.5]undecan-3-yl)methyl)cyclohexyl)methyl)thio)-2-(1-fluorocyclopropane-1-carboxamido)-3-methylbutanoyl)-4-hydroxy-N-(4-(4-methylthiazol-5-yl)benzyl)pyrrolidine-2-carboxamide]: the Dmax in assay [1] (dose response, 4 h treatment) amounted to 79%; in assay [5] (dose response, 4 h treatment), 65%. Besides, the inhibition at 1 µM fell in the range of 10 to 100% in assay [2] (1 μM/4 h treatment), 80 to 100% in assay [2] (1 μM/24 h treatment), 80 to 100% in assay [3] (1 μM/4 h treatment) and 80 to 100% in assay [3] (1 μM/24 h treatment). The EC50 in assay [2] was found to be 10 nM; in assay [3], 14 nM. Also, the inhibition at 0.033 µM in assay [3] (33 nM/4 h treatment) is 0 to 70%; in assay [3] (33 nM/24 h treatment) it was 0 to 80%; in assay [4] (33 nM/4 h treatment), 0 to 90%; in assay [4] (33 nM/24 h treatment), 30 to 90%.
